{"source": "patent US9492416B2", "about": "“Use of caftaric acid and lactic bacterium in food supplement for regulating skin pigmentation” (Nestec S.A., priority 2010, dated 2016)", "tested_on": "B16 murine melanocyte cell line", "assay": "Production of melanin by B16 murine melanocyte cell line", "type": "cell-based", "conditions": "B16 melanocytes, 72 hours; Kojic acid at 400 μg/mL", "protocol": "In order to evaluate the potential beneficial effect of ingredients towards skin de- or pro-pigmentation we used 2D culture of murine melanocytes (B16) and we performed 2 tests: 1—assessment of melanin production and 2—assessment of tyrosinase production.\n1. The Cell Culture Conditions. • B16 cells were cultured in DMEM 1 g/L glucose without phenol red supplemented with 10% foetal calf serum, in a humidified chamber at 37° C. and containing 5% CO2.\n2. The Production of Melanin by B16 Murine Melanocyte Cell Line. • Cells were incubated with the selected ingredients or the test references (Kojic acid at 400 μg/mL) for 72 hours, in the presence or absence of NDP-MSH an analog of MSH. The total quantity of melanin (extracellular and intracellular) was evaluated by measurement of the optical density at 405 nm of each sample against melanin standards in presence or in absence of NDP-MSH.\nCaftaric acid has been pre-treated with La-1 [(spray dried culture Lactobacillus Johnsonii CNCM I-1225, 1.19E10 cfu/g) for 24 hours in a thermomixer at 40° C., under shaking conditions. After incubation, samples have been centrifuged 5 minutes at 3000 g. After this treatment the probiotic as such is not present anymore in the sample however the presence of its metabolites can't be excluded.", "data": [{"smiles": "O=c1cc(CO)occ1O", "note": "[Kojic acid]", "values": [{"measurement": "melanin production (in words)", "value": "decrease in melanin production"}]}]}
